US9040663B2, “Melanocortin receptor-specific peptides” (AstraZeneca AB, priority 2009, dated 2015)
Where two headings read alike, the source gives them in different places.

Tests used:
hMC4-R [1] = molecular target: T1, hMC4-R (Homo sapiens (Human), UniProt P32245); assay: Competitive inhibition binding assay using [I125]-NDP-α-MSH, hMC4-R; conditions: membranes of HEK-293 cells expressing recombinant hMC4-R, read-out: MC4-R Ki
Description: 7.1 Competitive Inhibition Assay using [I^125]-NDP-α-MSH.
A competitive inhibition binding assay was performed for exemplified peptides according to the invention using membrane homogenates prepared from HEK-293 cells that express recombinant hMC4-R, hMC3-R, or hMC5-R, and from B-16 mouse melanoma cells (containing endogenous MC1-R). In some instances, HEK-293 cells that express recombinant hMC1-R were employed. Assays were performed in 96 well GF/B Millipore multiscreen filtration plates (MAFB NOB10) pre-coated with 0.5% bovine serum albumin (Fraction V). Membrane homogenates were incubated with 0.2 nM (for hMC4-R) 0.4 nM (for MC3-R and MC5-R) or 0.1 nM (for mouse B16 MC1-R or hMC1-R) [I^125]-NDP-α-MSH (Perkin Elmer) and increasing concentrations of test peptides of the present invention in buffer containing 25 mM HEPES buffer (pH 7.5) with 100 mM NaCl, 2 mM CaCl2, 2 mM MgCl2, 0.3 mM 1,10-phenanthroline, and 0.2% bovine serum albumin. After incubation for 60 minutes at 37° C., the assay mixture was filtered and the membranes washed three times with ice-cold buffer. Filters were dried and counted in a gamma counter for bound radioactivity. […] Maximal specific binding (100%) was defined as the difference in radioactivity (cpm) bound to cell membranes in the absence and presence of 1 μM NDP-α-MSH. […] Each assay was conducted in triplicate and the actual mean values are described, with results less than 0% reported as 0%. Ki values for test peptides of the present invention were determined using Graph-Pad Prism® curve-fitting software.

hMC4-R [2] = molecular target: T1, hMC4-R; assay: High and low density hMC4-R functional assay (cAMP, HEK293-T-REx-MC4-R cells); type: cell-based; conditions: for Emax: NDP-α-MSH = 100%, read-out: Intrinsic Activity (%)
Description: The cells were then dispensed into 96-well plates (BD 353916) in 198 μL (about 5×10^4) cells/well and incubated for 10 minutes at 37° C. The compound to be tested was diluted with DMSO to a final concentration of 1 mM. […] 120 μL of the 1 mM compound stock was pipetted in the second column on the plate. […] All assay samples were run in duplicate (i.e. each sample was in two low dox and two high dox plates, respectively). The plates were gently shaken and incubated for 15 minutes at 37° C.

[3] = 0.1 ng/mL Doxycycline (low density hMC4-R system)
[4] = 10 ng/mL Doxycycline (high density hMC4-R system)

T1 sequence (P32245 whole entry): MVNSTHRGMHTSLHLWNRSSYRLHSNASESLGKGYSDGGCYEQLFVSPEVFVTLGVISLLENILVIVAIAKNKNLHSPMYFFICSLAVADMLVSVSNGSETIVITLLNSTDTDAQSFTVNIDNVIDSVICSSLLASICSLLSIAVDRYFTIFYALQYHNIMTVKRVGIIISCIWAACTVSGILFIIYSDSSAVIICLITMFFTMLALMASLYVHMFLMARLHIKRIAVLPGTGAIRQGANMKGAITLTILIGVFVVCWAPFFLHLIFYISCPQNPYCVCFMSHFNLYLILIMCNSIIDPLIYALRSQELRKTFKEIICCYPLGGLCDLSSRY

Ki (hMC4-R [1]) [pM] | EC50 (hMC4-R [2]; [3]) [pM] | Emax (hMC4-R [2]; [3]) [%] | EC50 (hMC4-R [2]; [4]) [pM] | Emax (hMC4-R [2]; [4]) [%] | SMILES
300 | 125 | 74 | 120 | 90 | CC(=O)N[C@@H](CCCNC(=N)N)C(=O)N[C@H]1CCC(=O)NCCC[C@@H](C(N)=O)NC(=O)[C@H](Cc2c[nH]c3ccccc23)NC(=O)[C@H](CCCNC(=N)N)NC(=O)[C@@H](Cc2ccc(F)c(F)c2)NC(=O)[C@H](CCN)NC1=O [Example 26, Ac-Arg-cyclo(Glu-Dab-D-Phe(3,4-diF)-Arg-Trp-Orn)-NH2]
11000 | 3000 | 78 | 200 | 93 | CC(=O)N[C@@H](CCCNC(=N)N)C(=O)N[C@H]1CCC(=O)NCCC[C@@H](C(N)=O)NC(=O)[C@H](Cc2c[nH]c3ccccc23)NC(=O)[C@H](CCCNC(=N)N)NC(=O)[C@@H](Cc2ccccc2[N+](=O)[O-])NC(=O)[C@H](CCN)NC1=O [Example 22, Ac-Arg-cyclo(Glu-Dab-D-Phe(2-NO2)-Arg-Trp-Orn)-NH2]
2000 | 950 | 64 | 120 | 95 | CC(=O)N[C@@H](CCCNC(=N)N)C(=O)N[C@H]1CCC(=O)NCCC[C@@H](C(N)=O)NC(=O)[C@H](Cc2c[nH]c3ccccc23)NC(=O)[C@H](CCCNC(=N)N)NC(=O)[C@@H](Cc2cc(F)cc(F)c2)NC(=O)[C@H](CCN)NC1=O [Example 17, Ac-Arg-cyclo(Glu-Dab-D-Phe(3,5-diF)-Arg-Trp-Orn)-NH2]
400 | 420 | 35 | 220 | 97 | CC(=O)N[C@@H](CCCNC(=N)N)C(=O)N[C@H]1CCC(=O)NCCC[C@@H](C(N)=O)NC(=O)[C@H](Cc2c[nH]c3ccccc23)NC(=O)[C@H](CCCNC(=N)N)NC(=O)[C@@H](Cc2cccc(C)c2)NC(=O)[C@H](CCN)NC1=O [Example 19, Ac-Arg-cyclo(Glu-Dab-D-Phe(3-Me)-Arg-Trp-Orn)-NH2]
833 | 300 | 48 | 135 | 100 | CC(=O)N[C@@H](CCCNC(=N)N)C(=O)N[C@H]1CCC(=O)NCCC[C@@H](C(N)=O)NC(=O)[C@H](Cc2c[nH]c3ccccc23)NC(=O)[C@H](CCCNC(=N)N)NC(=O)[C@@H](Cc2ccc(C#N)cc2)NC(=O)[C@H](CCN)NC1=O [Example 7, Ac-Arg-cyclo(Glu-Dab-D-Phe(4-CN)-Arg-Trp-Orn)-NH2]
48000 | 29000 | 35 | 600 | 94 | CC(=O)N[C@@H](CCCNC(=N)N)C(=O)N[C@H]1CCC(=O)NCCC[C@@H](C(N)=O)NC(=O)[C@H](Cc2c[nH]c3ccccc23)NC(=O)[C@H](CCCNC(=N)N)NC(=O)[C@@H](Cc2ccc(N)cc2)NC(=O)[C@H](CCN)NC1=O [Example 28, Ac-Arg-cyclo(Glu-Dab-D-Phe(4-NH2)-Arg-Trp-Orn)-NH2]
5000 | 3000 | 15 | 350 | 89 | CC(=O)N[C@@H](CCCNC(=N)N)C(=O)N[C@H]1CCC(=O)NCCC[C@@H](C(N)=O)NC(=O)[C@H](Cc2c[nH]c3ccccc23)NC(=O)[C@H](CCCNC(=N)N)NC(=O)[C@@H](Cc2ccccc2Cl)NC(=O)[C@@H]2CCCN2C1=O [Example 88, Ac-Arg-cyclo(Glu-Pro-D-Phe(2-Cl)-Arg-Trp-Orn)-NH2]
500 | 3000 | 14 | 800 | 100 | CC(=O)N[C@@H](CCCNC(=N)N)C(=O)N[C@H]1CCC(=O)NCCC[C@@H](C(N)=O)NC(=O)[C@H](Cc2c[nH]c3ccccc23)NC(=O)[C@H](CCCNC(=N)N)NC(=O)[C@@H](Cc2ccc(-c3ccccc3)cc2)NC(=O)[C@H](CCN)NC1=O [Example 29, Ac-Arg-cyclo(Glu-Dab-D-Phe(4-Ph)-Arg-Trp-Orn)-NH2]
